Test results taken from US20090074911A1, “Indicia-Bearing Package For Delivery Systems” (CADBURY ADAMS USA LLC, priority 2005, published 2009).

Assay: Discoloration (degradation) of sucralose during encapsulation
Assay type: physicochemical
Method: As one example of a hydrophilic coating, sucralose was mixed with powdered polyvinyl acetate and 5% fat and extruded at 110° C. […] In an alternative encapsulation, sucralose was mixed with powdered polyvinyl acetate, 2% polyvinylpyrollidone and 1% magnesium stearate and pressed into tablets at 25° C. The tablets were then heated to 80° C., which softened the polymer and fused the polyvinylacetate with the sucralose. […] Thereafter, the tablets were cooled, ground and sized and analyzed. […] As another example, a polymer/sweetener matrix was prepared as described above in this paragraph. A solution of gum arabic was made and coated on the polymer/sweetener matrix particles using the method described in U.S. Pat. No. 3,196,827, the relevant portions of which are incorporated herein by reference. Coating levels were 20, 30, 40, and 50% for different samples. Chewing gums prepared with the coated polymer/sweetener matrix particles were chewed by a panel with bolus collection at 5, 10, 15, 20 minutes. Residual sucralose was analyzed in each chewed bolus.

discoloration indicating degradation of the sucralose (mixed with powdered polyvinyl acetate and 5% fat, extruded at 110° C.): Extensive discoloration
discoloration of the sucralose (mixed with powdered polyvinyl acetate, 2% polyvinylpyrollidone, 1% magnesium stearate, pressed into tablets at 25° C., heated to 80° C.): No discoloration
discoloration of the sucralose (same tablets after being cooled, ground, sized and analyzed): no discoloration
Structure (SMILES): OC[C@H]1O[C@H](O[C@]2(CCl)O[C@H](CCl)[C@@H](O)[C@@H]2O)[C@H](O)[C@@H](O)[C@H]1Cl [sucralose]
